Measured values reported in patent publication US7781485B2, “Hsp90 family protein inhibitors” (Kyowa Hakko Kirin Co., Ltd., priority 2004, dated 2010).

Test system: human mammary cancer-derived KPL-4 cells
Assay: Growth inhibition test on human mammary cancer-derived KPL-4 cells (WST-1)
Type: cell-based
Conditions: KPL4, 72 hours culture, read-out: 50% growth inhibitory concentration (GI50)
Protocol: Two thousand cells of human mammary cancer-derived KPL-4 cells were inoculated into each well of a 96-well microplate (manufactured by Nunc Corp.), and using Dulbecco's Modified Eagle's Medium (DMEM) (culture medium) containing 10% fetal calf serum (FCS), preculturing was performed in a 5% carbon dioxide incubator at 37° C. for 24 hours. A dimethyl sulfoxide (DMSO) solution of each test compound prepared in a concentration of 10 mmol/L was diluted with the culture medium step-by-step to a final concentration of […], and the diluted solution was added to each well. The individual wells were further cultured in the 5% carbon dioxide incubator at 37° C. for 72 hours. After completion of the culturing, 20 μL of WST-1 {4-[3-(4-Iodophenyl)-2-(4-nitrophenyl)-2H-5-tetrazolio]-1,3-benzene disulfonate} reagent mixture (manufactured by Roche Diagnostic Corp.) diluted to twice its original amount by culture medium was added to each well, and culturing was performed in the 5% carbon dioxide incubator at 37° C. for 1 hour. Using a microplate spectrophotometer (Model 550; manufactured by Bio-Rad), the absorbance of each well was measured at 450 nm and 655 nm. The cell growth inhibitory activity was expressed as 50% growth inhibitory concentration (GI50). The method for calculating the GI50 value is as follows. A value obtained by subtracting the absorbance at 655 nm from the absorbance at 450 nm (absorbance difference) was calculated for each well. The absorbance difference obtained for cells not treated with a test compound was designated as 100%, which was compared with the absorbance difference obtained for cells treated with each compound at various test concentrations, and thus the compound concentration at which cell growth was inhibited by 50% was calculated to determine the GI50 value.

| GI50 [µM] | Compound |
| --- | --- |
| ≤ 50 | CCc1c(O)cc(O)c(C(=O)N2CCN(C)CC2)c1CC(=O)OC [Compound 18, [2-Ethyl-3,5-dihydroxy-6-(4-methylpiperazin-1-ylcarbonyl)phenyl]acetic acid methyl ester] |
| ≤ 50 | CCc1c(O)cc(O)c(C(=O)N(C)CCOC)c1CC(=O)OC [Compound 16, {2-Ethyl-3,5-dihydroxy-6-[N-(2-methoxyethyl)-N-methylcarbamoyl]phenyl}acetic acid methyl ester] |
| ≤ 50 | CCCN(C)C(=O)c1c(O)cc(O)c(CC)c1CC(=O)OC [Compound 15, [2-Ethyl-3,5-dihydroxy-6-(N-methyl-N-propylcarbamoyl)phenyl]acetic acid methyl ester] |
| ≤ 50 | COC(=O)c1c(O)cc(O)c(Br)c1COCc1ccccc1 [Compound 10, 2-(Benzyloxymethyl)-3-bromo-4,6-dihydroxybenzoic acid methyl ester] |
| ≤ 50 | CCc1c(O)cc(O)c(C(=O)OC)c1CC(=O)OC [Compound 23, 3-Ethyl-4,6-dihydroxy-2-(methoxycarbonylmethyl)benzoic acid methyl ester] |
| ≤ 50 | O=C(NCCc1ccccc1)c1c(O)cc(O)cc1COCc1ccccc1 [Compound 3, 2-(Benzyloxymethyl)-4,6-dihydroxy-N-phenethylbenzamide] |
| ≤ 50 | CCc1c(O)cc(O)c(C(=O)NCc2ccccc2)c1CCO [Compound 19, N-benzyl-3-ethyl-4,6-dihydroxy-2-(2-hydroxyethyl)benzamide] |
| ≤ 50 | CCc1c(O)cc(O)c(C(=O)N2CCCCC2)c1CC(=O)OC [Compound 17, [2-Ethyl-3,5-dihydroxy-6-(piperidinocarbonyl)phenyl]acetic acid methyl ester] |
| ≤ 50 | CCc1c(O)cc(O)c(C(=O)N2CCOCC2)c1CC(=O)OC [Compound 14, [2-Ethyl-3,5-dihydroxy-6-(morpholinocarbonyl)phenyl]acetic acid methyl ester] |

| Compound | GI50 [µM] |
| --- | --- |
| O=C(NCc1ccccc1)c1c(O)cc(O)cc1COCc1ccccc1 [Compound 2, N-benzyl-2-(benzyloxymethyl)-4,6-dihydroxybenzamide] | ≤ 50 |
| O=C(Nc1ccccc1)c1c(O)cc(O)cc1COCc1ccccc1 [Compound 1, 2-(Benzyloxymethyl)-4,6-dihydroxy-N-phenylbenzamide] | ≤ 50 |
| O=C(NCc1ccccn1)c1c(O)cc(O)c(Cl)c1COCc1ccccc1 [Compound 9, 2-(Benzyloxymethyl)-3-chloro-4,6-dihydroxy-N-(pyridin-2-ylmethyl)benzamide] | ≤ 50 |
